This is an account of results in publication PMC8068134 (Toxins, 2021).

Where two headings read alike, the source gives them in different places. Numbered stars: 1 amine (or outer) side, 2 acyl side, 3 side chain; on linkers, the order of the positions; unused ones are H or OH. Bridge positions count the residues as written; N and C are the ends. Square brackets hold non-standard residues; d marks the D form. Peptide text beside a SMILES is read from it. hTyr = N[C@@H](CCc1ccc(O)cc1)C(=O)O; NMeA = CN[C@@H](C)C(=O)O; CO = O=C([*:1])[*:2]

Data set [1] in a line: physchem. The class given is physicochemical. As to conditions: cells or culture medium, 3rd day, mean ± SD, n = 3, read-out: Peptide Remaining Concentration (%), Negative Control, 3rd Day. How it is done: OD-corrected P. toxinivorans was transferred to the 96-well microplate in a solution with fresh culture media and individual peptides. For all experimental conditions, microplates were prepared to allow different sampling times over 7 days of incubation in a shaker incubator at 150 rpm and 28 °C. Three different plates were initially prepared maintaining the same conditions, and they were, respectively, taken to be considered as sampling time at 0, 3, and 7th days. This procedure was established in order to sample only once from each well to avoid the effect of differing volumes and potential contamination. At each sampling time, 150 µL were taken and added to 150 µL of 80% aqueous methanol solution with 2% formic acid (in a 1.5 mL centrifuge tube) in order to kill bacteria and stop their metabolism, as well as to precipitate large proteins, which could affect analytical procedures. Samples were centrifuged for 15 min at 13,000× g. Supernatants were recovered, 1:10 diluted (100:900 μL) in aqueous methanol 80% and stored at −20 °C until ultrahigh performance liquid chromatography coupled to mass spectrometry analysis (UPLC–MS). This experimental design was applied in all experiments in order to evaluate the biodegradation of peptides by P. toxinivorans. All experimental conditions were carried out in biological replicates (n = 3) and with negative controls without bacteria.
All peptides studied were analyzed by UPLC–PDA–MS/MS (Waters®, Manchester, UK) as described previously by Turner et al.. Briefly, chromatographic separation was carried out using a Waters ACQUITY UPLC BEH C18 column (1.7 µm, 2.1 × 100 mm) held at 60 °C. Samples were kept in the sample manager at 10 °C and the injection volume was 5 µL. Mobile phase consisted of (A) water + 0.025% formic acid and (B) acetonitrile + 0.025% formic acid at a flow rate of 0.6 mL/min. The gradient consisted of 2% B initial condition rising to 25% B at 0.5 min holding until 1.5 min, rising to 40% B at 3.0 min, increasing further to 50% B at 4 min, a quick rise to 95% B and 4.1 min and held until 4.5 min before dropping back to 2% B at 5 min. Detection wavelength was set at 238 nm. Mass spectrometric detection was performed with a triple quadrupole mass spectrometer (Waters Xevo TQ-XS, Manchester, UK) equipped with an electrospray ionization (ESI) interface operating in positive ionization mode. Operational parameters were as follow: 150 °C source temperature, 600 °C desolvation temperature, 600 L/h desolvation gas flow (N2), 150 L/h cone gas flow, and 0.15 mL/min collision gas flow (Ar). Capillary voltage was held at 1.0 kV. Multiple Reaction Monitoring (MRM) transitions used as well as retention time, chemical structure, and respective formula of peptides can be found in Table S2. […]

Data set [2] in a line: enzymatic activity of a Sphingomonas species that possess mlr pathway. As to conditions: cited from earlier work.
Data set [3] can be described thus: Y2 strain culture; individual peptide, peptide mix, and M. aeruginosa crude extract. As to conditions: Sphingosinicella microcystinivorans (Y2 strain).
Data set [4] can be described thus: Paucibacter toxinivorans (2C20) culture (OD600 0.4) in R2A media, pure MC-LR. As to conditions: Paucibacter toxinivorans 2C20 strain, 28 °C, up to 7 days.
Data set [5] in a line: Paucibacter toxinivorans (2C20) culture in R2A media with cyanopeptide mix. As to conditions: Paucibacter toxinivorans 2C20 strain, 28 °C, up to 7 days.
A short description of data set [6]: enzymatic biodegradation product of Sphingopyxis sp. USTB05. As to conditions: cited from earlier work.
The mark [7] stands for this setting: Individual peptide, 10 μg/mL, UPLC-MS/MS.

As for `CC[C@H](C)[C@@H]1NC(=O)[C@@H]2CSC(=N2)[C@@H]([C@@H](C)CC)NC(=O)c2csc(n2)CNC(=O)[C@H]2N=C1O[C@@H]2C` [AC-A, aerucyclamide A], in data set [1] (In MIX: MC-LR 10 μg/mL, other cyanopeptides 1 µg/mL), the remaining at 72 h came out at 109 ± 5.6%.

In the case of `CSCC[C@@H]1NC(=O)[C@@H]2CSC(=N2)[C@@H](Cc2ccccc2)NC(=O)c2csc(n2)CNC(=O)[C@H]2N=C1O[C@@H]2C` [AC-D, aerucyclamide D], the remaining at 72 h in data set [1] (setting [7]) came to 113 ± 1.6%.

For the compound `CC(C)[C@@H]1NC(=O)[C@H](NC(=O)N[C@@H](Cc2ccc(O)cc2)C(=O)O)CCCCNC(=O)[C@H](Cc2ccccc2)NC(=O)[C@H](C)N(C)C(=O)[C@H](CCc2ccc(O)cc2)NC1=O` [ANBP-A, anabaenopeptin A] ({Tyr-CO}-[dK]V[hTyr][NMeA]F; lactam 1-C), the remaining at 72 h in data set [1] (setting [7]) came out at 112 ± 8.1%.

Consider `CC(C)[C@@H]1NC(=O)[C@H](NC(=O)N[C@@H](CCCNC(=N)N)C(=O)O)CCCCNC(=O)[C@H](Cc2ccccc2)NC(=O)[C@H](C)N(C)C(=O)[C@H](CCc2ccc(O)cc2)NC1=O` [ANBP-B, anabaenopeptin B] ({Arg-CO}-[dK]V[hTyr][NMeA]F; lactam 1-C), for which, in data set [1] (setting [7]), the remaining at 72 h turned out to be 100 ± 17.1%.

Regarding Adda-Glu-Mdha-Ala-Leu-Masp-Arg, the fragment found entry in data set [2] is recorded as “linearized MC-LR (biodegradation product A)”. The not cleaved entry in data set [3] is given as “did not degrade any cyanobacterial peptides”. Besides, the cleaved bond result in data set [4] is on record as “Arg-Adda, day 3”.

In the case of Adda-Glu-Mdha-Ala-Leu-Masp-Phe, the cleaved bond entry in data set [5] is “Phe-Adda, day 7”. Moreover, the not cleaved entry in data set [3] is recorded as “did not degrade any cyanobacterial peptides”.

Turning to Adda-Glu-Mdha-Ala-Tyr-Masp-Arg, the cleaved bond result in data set [5] is given as “Arg-Adda, day 7”. Besides, the fragment found result in data set [6] was “linearized MC-YR (peptide C)”. Also, the not cleaved result in data set [3] is listed as “did not degrade any cyanobacterial peptides”.
